Tests used:
IN2045 GBM cell line = assay: Sensitivity of GBM cell line to Compounds 1 and 2 (ID50); assay type: cell-based; conditions: Homo sapiens
UWLV304 GBM cell line = assay: as above; assay type: cell-based; conditions: Homo sapiens
IN1528 GBM cell line = assay: as above; assay type: cell-based; conditions: Homo sapiens
IN1951 GBM cell line = assay: as above; assay type: cell-based; conditions: Homo sapiens
UWLV301 GBM cell line = assay: as above; assay type: cell-based; conditions: Homo sapiens
IN859 GBM cell line = assay: as above; assay type: cell-based; conditions: Homo sapiens
U251MG GBM cell line = assay: as above; assay type: cell-based; conditions: Homo sapiens, U-251
GBM cells = assay: Proliferation and survival of GBM cells over 8 days; assay type: cell-based, human; conditions: for change in GBM cell population by day 8 / rate of proliferation in comparison with untreated samples: 10 μM and 20 μM; for change in GBM cell population by day 8: UWLV301, UWLV304, IN1951, U251MG and IN2045; for rate of proliferation in comparison with untreated samples: recorded daily for 8 days, all cell lines; for slowing or eliminating the proliferation of the GBM cell lines: summary statement
Experimental: Further studies were carried out to test the effect of Compounds 1 and 2 on proliferation and survival of the GBM cells. […] Results on the change in cell population were observed and recorded daily for 8 days.

PDE1 (bovine brain) = biological target: T1, PDE1 (bovine brain); assay type: biochemical
T1 construct: Ki; other: PDE1 (bovine brain)

bovine retina PDE6 = biological target: T2, bovine retina PDE6 (Bos taurus, UniProt P11541+P23439); assay: Inhibitory constant against PDEs; assay type: biochemical
T2 construct: bovine retina PDE6; from tissue; host or cells: bovine retina
T2 sequence (P11541 2-856 limits assumed): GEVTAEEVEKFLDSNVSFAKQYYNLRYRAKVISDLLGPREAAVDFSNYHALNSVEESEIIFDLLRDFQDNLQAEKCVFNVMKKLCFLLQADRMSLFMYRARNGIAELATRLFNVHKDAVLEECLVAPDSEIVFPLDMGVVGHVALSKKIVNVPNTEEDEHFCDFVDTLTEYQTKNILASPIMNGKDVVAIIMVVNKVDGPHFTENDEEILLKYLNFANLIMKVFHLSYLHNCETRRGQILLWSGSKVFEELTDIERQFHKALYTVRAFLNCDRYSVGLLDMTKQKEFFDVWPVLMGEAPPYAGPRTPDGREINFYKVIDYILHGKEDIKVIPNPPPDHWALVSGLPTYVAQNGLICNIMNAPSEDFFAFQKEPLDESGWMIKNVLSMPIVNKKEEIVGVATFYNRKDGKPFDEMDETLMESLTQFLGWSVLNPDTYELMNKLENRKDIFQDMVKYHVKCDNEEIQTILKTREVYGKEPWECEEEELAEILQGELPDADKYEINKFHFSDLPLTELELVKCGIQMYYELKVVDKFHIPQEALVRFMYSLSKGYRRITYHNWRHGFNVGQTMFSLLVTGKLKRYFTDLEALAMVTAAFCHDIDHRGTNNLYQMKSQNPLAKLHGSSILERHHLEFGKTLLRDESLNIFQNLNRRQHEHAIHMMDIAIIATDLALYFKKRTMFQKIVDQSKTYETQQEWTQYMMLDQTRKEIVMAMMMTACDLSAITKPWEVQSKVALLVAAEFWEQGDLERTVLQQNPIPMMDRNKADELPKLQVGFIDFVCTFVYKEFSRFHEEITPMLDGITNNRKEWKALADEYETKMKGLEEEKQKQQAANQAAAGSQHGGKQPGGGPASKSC
T2 sequence (P23439 2-850 limits assumed): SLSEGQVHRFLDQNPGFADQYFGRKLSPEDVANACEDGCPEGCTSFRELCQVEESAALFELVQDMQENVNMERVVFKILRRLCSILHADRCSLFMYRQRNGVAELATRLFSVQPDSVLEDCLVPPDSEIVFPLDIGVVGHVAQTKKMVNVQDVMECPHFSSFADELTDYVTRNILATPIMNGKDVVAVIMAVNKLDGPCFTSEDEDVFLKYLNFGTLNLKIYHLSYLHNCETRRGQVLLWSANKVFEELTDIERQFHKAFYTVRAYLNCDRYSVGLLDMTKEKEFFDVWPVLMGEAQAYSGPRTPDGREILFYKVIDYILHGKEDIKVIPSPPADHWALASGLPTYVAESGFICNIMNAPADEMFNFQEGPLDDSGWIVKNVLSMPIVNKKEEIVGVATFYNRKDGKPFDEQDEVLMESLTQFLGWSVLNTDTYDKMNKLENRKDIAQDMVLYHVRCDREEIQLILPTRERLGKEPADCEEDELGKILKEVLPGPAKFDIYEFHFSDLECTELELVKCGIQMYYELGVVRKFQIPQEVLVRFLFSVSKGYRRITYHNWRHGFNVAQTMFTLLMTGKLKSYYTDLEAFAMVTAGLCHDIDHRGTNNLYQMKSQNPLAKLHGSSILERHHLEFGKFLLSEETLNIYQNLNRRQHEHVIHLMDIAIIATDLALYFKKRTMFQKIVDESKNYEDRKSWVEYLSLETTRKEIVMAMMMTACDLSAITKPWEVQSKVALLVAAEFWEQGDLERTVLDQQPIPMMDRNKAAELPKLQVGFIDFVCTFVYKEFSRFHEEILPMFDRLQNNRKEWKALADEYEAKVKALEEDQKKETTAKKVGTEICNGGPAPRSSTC

## CC(=O)c1ccc(Cn2nc3c(c2Nc2ccc(F)cc2)C(=O)N(C)C2=NC(C)(C)CN23)cc1 [Compound 2]
IN2045 GBM cell line
  IC50: 12 µM
UWLV304 GBM cell line
  IC50: 2.87 µM
IN1528 GBM cell line
  IC50: 9.45 µM
IN1951 GBM cell line
  IC50: 1030 nM
UWLV301 GBM cell line
  IC50: 4.73 µM
IN859 GBM cell line
  IC50: 9.77 µM
U251MG GBM cell line
  IC50: 32 µM
GBM cells
  change in GBM cell population by day 8: overall decrease
  rate of proliferation in comparison with untreated samples: proliferated at a slower rate
  slowing or eliminating the proliferation of the GBM cell lines: highly effective

## CN1C(=O)c2c(nn(Cc3ccc(-c4cccc(F)n4)cc3)c2Nc2ccccc2)N2C1=N[C@@H]1CCC[C@@H]12 [Compound 1]
IN2045 GBM cell line
  IC50: 18.4 µM
UWLV304 GBM cell line
  IC50: 6.4 µM
IN1528 GBM cell line
  IC50: 26.5 µM
PDE1 (bovine brain)
  Ki: 0.058 nM
IN1951 GBM cell line
  IC50: 2040 nM
UWLV301 GBM cell line
  IC50: 5.4 µM
IN859 GBM cell line
  IC50: 34.9 µM
Bovine retina PDE6
  Ki: 320 nM
U251MG GBM cell line
  IC50: 17.8 µM
GBM cells
  change in GBM cell population by day 8: overall decrease
  rate of proliferation in comparison with untreated samples: proliferated at a slower rate
  slowing or eliminating the proliferation of the GBM cell lines: highly effective

— patent US12636287B2, “Organic compounds” (INTRA-CELLULAR THERAPIES, INC., priority 2018, dated 2026)
